Assay results from patent publication US10059701B2 (Merck Patent GmbH, priority 2015, dated 2018).
pIC50: −log10 of the molar value.

Assays:
IRAK1 = biological target: T1, IRAK1 (Homo sapiens, UniProt P51617); assay: IRAK1 enzymatic assay (ADP-Glo luminescence); type: biochemical; conditions: purified human recombinant His-TEV-IRAK1 (194-712)
T1 construct: His-TEV-IRAK1 (194-712); His (N); TEV cleavage site (N)
How it was run: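 Recombinant human His-TEV-IRAK1 (194-712), 0.3 μg/ml, preincubated 15 min at RT with compounds (10 μM to 0.5 nM) in 50 mM Hepes pH 7.0, 10 mM MgCl2, 2 mM DTT, 0.1% BSA. ATP-started reaction run 2 hours at RT; ADP formed from ATP hydrolysis/autophosphorylation read by ADP-Glo luminescence.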

IRAK4 = biological target: T2, IRAK4 (Homo sapiens, UniProt Q9NWZ3); assay: IRAK4 enzymatic assay (ADP-Glo luminescence); type: biochemical; conditions: purified human recombinant His-TEV-IRAK4 (1-460), ATP 2 μM
T2 construct: His-TEV-IRAK4 (1-460); His (N); TEV cleavage site (N)
T2 sequence (Q9NWZ3 1-460): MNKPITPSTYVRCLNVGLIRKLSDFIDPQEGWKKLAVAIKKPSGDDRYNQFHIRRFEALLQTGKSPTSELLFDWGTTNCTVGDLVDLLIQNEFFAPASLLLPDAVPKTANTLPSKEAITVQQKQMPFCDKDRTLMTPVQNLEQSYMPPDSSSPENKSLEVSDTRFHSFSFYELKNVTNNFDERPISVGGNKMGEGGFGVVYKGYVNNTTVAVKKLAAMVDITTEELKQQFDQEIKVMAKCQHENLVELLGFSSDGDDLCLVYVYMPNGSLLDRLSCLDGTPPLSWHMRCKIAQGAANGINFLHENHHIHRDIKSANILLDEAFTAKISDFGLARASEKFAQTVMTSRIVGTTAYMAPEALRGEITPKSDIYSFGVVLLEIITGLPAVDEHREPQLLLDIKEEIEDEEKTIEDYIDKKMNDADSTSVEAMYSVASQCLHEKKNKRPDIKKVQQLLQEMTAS
How it was run: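 Recombinant His-TEV-IRAK4 (1-460) at 0.3 μg/ml preincubated 15 min at RT with compounds (10 μM to 0.5 nM) in Hepes pH 7.0 buffer with MgCl2/MnCl2. Reaction started with 2 μM ATP and 300 nM STK1-biotin peptide, run 2 h at RT. ADP formed read by ADP-Glo luminescence.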

T1 sequence (P51617 194-712): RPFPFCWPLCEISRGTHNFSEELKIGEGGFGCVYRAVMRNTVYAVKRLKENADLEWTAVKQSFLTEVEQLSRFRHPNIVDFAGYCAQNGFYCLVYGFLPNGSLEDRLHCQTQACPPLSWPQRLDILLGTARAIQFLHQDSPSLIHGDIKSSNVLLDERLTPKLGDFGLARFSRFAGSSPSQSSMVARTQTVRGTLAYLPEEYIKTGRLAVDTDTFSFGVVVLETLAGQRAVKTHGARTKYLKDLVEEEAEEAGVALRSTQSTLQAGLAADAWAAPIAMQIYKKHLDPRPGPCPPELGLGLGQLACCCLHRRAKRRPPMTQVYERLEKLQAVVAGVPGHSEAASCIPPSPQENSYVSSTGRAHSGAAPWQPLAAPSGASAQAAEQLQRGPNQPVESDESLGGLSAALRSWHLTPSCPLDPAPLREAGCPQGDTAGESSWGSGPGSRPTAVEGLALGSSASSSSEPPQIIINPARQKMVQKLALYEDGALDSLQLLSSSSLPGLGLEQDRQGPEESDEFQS

Row | SMILES | pIC50 (IRAK1) | pIC50 (IRAK4)
1 | O=C(/N=c1\[nH]c2cc(N3CCCOCC3=O)ccc2n1CCCO)c1cccc(C(F)(F)F)c1 [Compound 193, (E)-N-(1-(3-hydroxypropyl)-5-(3-oxo-1,4-oxazepan-4-yl)-1H-benzo[d]imidazol-2(3H)-ylidene)-3-(trifluoromethyl)benzamide] | ≥ 7.00 | ≥ 7.00
2 | CC1(C)C(=O)N(c2ccc3c(c2)[nH]/c(=N\C(=O)c2cccc(C(F)(F)F)c2)n3CCCO)CCN1C1CC1 [Compound 194, (E)-N-(5-(4-cyclopropyl-3,3-dimethyl-2-oxopiperazin-1-yl)-1-(3-hydroxypropyl)-1H-benzo[d]imidazol-2(3H)-ylidene)-3-(trifluoromethyl)benzamide] | 6.00 to 7.00 | ≥ 7.00
3 | C[C@H](CCO)n1/c(=N/C(=O)c2cccc(C(F)F)c2)[nH]c2cc(N3CCOCC3=O)ccc21 [Compound 242, (R,E)-3-(difluoromethyl)-N-(1-(4-hydroxybutan-2-yl)-5-(3-oxomorpholino)-1H-benzo[d]imidazol-2(3H)-ylidene)benzamide] | ≥ 7.00 | ≥ 7.00
4 | O=C(/N=c1\[nH]c2cc(N3CCCOCC3=O)ccc2n1CCCO)c1cccc(C(F)F)c1 [Example 186, (E)-3-(difluoromethyl)-N-(1-(3-hydroxypropyl)-5-(3-oxo-1,4-oxazepan-4-yl)-1H-benzo[d]imidazol-2(3H)-ylidene)benzamide] | ≥ 7.00 | ≥ 7.00
5 | O=C(/N=c1\[nH]c2cc(N3CCOCCC3=O)ccc2n1CCCO)c1cccc(C(F)F)c1 [Example 187, (E)-3-(difluoromethyl)-N-(1-(3-hydroxypropyl)-5-(5-oxo-1,4-oxazepan-4-yl)-1H-benzo[d]imidazol-2(3H)-ylidene)benzamide] | ≥ 7.00 | ≥ 7.00
6 | CC1(C)C(=O)N(c2ccc3c(c2)[nH]/c(=N\C(=O)c2cccc(C(F)F)c2)n3CCCO)CCN1C1CC1 [Example 188, (E)-N-(5-(4-cyclopropyl-3,3-dimethyl-2-oxopiperazin-1-yl)-1-(3-hydroxypropyl)-1H-benzo[d]imidazol-2(3H)-ylidene)-3-(difluoromethyl)benzamide] | ≥ 7.00 | ≥ 7.00
7 | O=C(/N=c1\[nH]c2cc(N3C(=O)COCC34CC4)ccc2n1CCCO)c1cccc(C(F)(F)F)c1 [Example 189, (E)-N-(1-(3-hydroxypropyl)-5-(5-oxo-7-oxa-4-azaspiro[2.5]octan-4-yl)-1H-benzo[d]imidazol-2(3H)-ylidene)-3-(trifluoromethyl)benzamide] | ≥ 7.00 | ≥ 7.00
8 | O=C(/N=c1\[nH]c2cc(N3C(=O)COCC34CC4)ccc2n1CCCO)c1cccc(C(F)F)c1 [Example 190, (E)-3-(difluoromethyl)-N-(1-(3-hydroxypropyl)-5-(5-oxo-7-oxa-4-azaspiro[2.5]octan-4-yl)-1H-benzo[d]imidazol-2(3H)-ylidene)benzamide] | ≥ 7.00 | ≥ 7.00
9 | O=C(/N=c1\[nH]c2cc(N3CCN(C4CC4)CCC3=O)ccc2n1CCCO)c1cccc(C(F)(F)F)c1 [Example 191, (E)-N-(5-(4-cyclopropyl-7-oxo-1,4-diazepan-1-yl)-1-(3-hydroxypropyl)-1H-benzo[d]imidazol-2(3H)-ylidene)-3-(trifluoromethyl)benzamide] | 6.00 to 7.00 | ≥ 7.00
10 | O=C(/N=c1\[nH]c2cc(N3CCCN(C4CC4)CC3=O)ccc2n1CCCO)c1cccc(C(F)(F)F)c1 [Example 192, (E)-N-(5-(4-cyclopropyl-2-oxo-1,4-diazepan-1-yl)-1-(3-hydroxypropyl)-1H-benzo[d]imidazol-2(3H)-ylidene)-3-(trifluoromethyl)benzamide] | 6.00 to 7.00 | ≥ 7.00
11 | O=C(/N=c1\[nH]c2cc(-n3ccccc3=O)ccc2n1CCCO)c1cccc(C(F)(F)F)c1 [Example 193, (E)-N-(1-(3-hydroxypropyl)-5-(2-oxopyridin-1(2H)-yl)-1H-benzo[d]imidazol-2(3H)-ylidene)-3-(trifluoromethyl)benzamide] | 6.00 to 7.00 | ≥ 7.00
12 | O=C(/N=c1\[nH]c2cc(-n3ccccc3=O)ccc2n1CCCO)c1cccc(C(F)F)c1 [Example 194, (E)-3-(difluoromethyl)-N-(1-(3-hydroxypropyl)-5-(2-oxopyridin-1(2H)-yl)-1H-benzo[d]imidazol-2(3H)-ylidene)benzamide] | 6.00 to 7.00 | ≥ 7.00
13 | CC1(C)C(=O)N(c2ccc3c(c2)[nH]/c(=N\C(=O)c2cccc(C(F)F)c2)n3CCCO)CCN1CCO [Example 195, (E)-3-(difluoromethyl)-N-(5-(4-(2-hydroxyethyl)-3,3-dimethyl-2-oxopiperazin-1-yl)-1-(3-hydroxypropyl)-1H-benzo[d]imidazol-2(3H)-ylidene)benzamide] | 6.00 to 7.00 | ≥ 7.00
14 | CC1(C)COC(=O)N1c1ccc2c(c1)[nH]/c(=N\C(=O)c1cccc(C(F)F)c1)n2CCCO [Example 196, (E)-3-(difluoromethyl)-N-(5-(4,4-dimethyl-2-oxooxazolidin-3-yl)-1-(3-hydroxypropyl)-1H-benzo[d]imidazol-2(3H)-ylidene)benzamide] | 6.00 to 7.00 | ≥ 7.00
15 | O=C(/N=c1\[nH]c2cc(N3C(=O)CN(C4CC4)CC34CC4)ccc2n1CCCO)c1cccc(C(F)(F)F)c1 [Example 197, (E)-N-(5-(7-cyclopropyl-5-oxo-4,7-diazaspiro[2.5]octan-4-yl)-1-(3-hydroxypropyl)-1H-benzo[d]imidazol-2(3H)-ylidene)-3-(trifluoromethyl)benzamide] | ≥ 7.00 | ≥ 7.00
16 | O=C(/N=c1\[nH]c2cc(N3C(=O)CN(C4CC4)CC34CC4)ccc2n1CCCO)c1cccc(C(F)F)c1 [Example 198, (E)-N-(5-(7-cyclopropyl-5-oxo-4,7-diazaspiro[2.5]octan-4-yl)-1-(3-hydroxypropyl)-1H-benzo[d]imidazol-2(3H)-ylidene)-3-(difluoromethyl)benzamide] | ≥ 7.00 | ≥ 7.00
17 | CC1(C)CN(c2ccc3c(c2)[nH]/c(=N\C(=O)c2cccc(C(F)(F)F)c2)n3CCCO)C(=O)O1 [Example 199, (E)-N-(5-(5,5-dimethyl-2-oxooxazolidin-3-yl)-1-(3-hydroxypropyl)-1H-benzo[d]imidazol-2(3H)-ylidene)-3-(trifluoromethyl)benzamide] | 6.00 to 7.00 | ≥ 7.00
18 | CC1(C)CN(c2ccc3c(c2)[nH]/c(=N\C(=O)c2cccc(C(F)F)c2)n3CCCO)C(=O)O1 [Example 200, (E)-3-(difluoromethyl)-N-(5-(5,5-dimethyl-2-oxooxazolidin-3-yl)-1-(3-hydroxypropyl)-1H-benzo[d]imidazol-2(3H)-ylidene)benzamide] | 6.00 to 7.00 | ≥ 7.00
19 | O=C(/N=c1\[nH]c2cc(-n3ncccc3=O)ccc2n1CCCO)c1cccc(C(F)(F)F)c1 [Example 201, (E)-N-(1-(3-hydroxypropyl)-5-(6-oxopyridazin-1(6H)-yl)-1H-benzo[d]imidazol-2(3H)-ylidene)-3-(trifluoromethyl)benzamide] | ≥ 7.00 | ≥ 7.00
20 | [2H]C([2H])([2H])Oc1cc2c(cc1N1CCOCC1=O)[nH]/c(=N\C(=O)c1cccc(C(F)(F)F)c1)n2CCCO [Example 202, (E)-N-(1-(3-hydroxypropyl)-6-(trideuteromethoxy)-5-(3-oxomorpholino)-1H-benzo[d]imidazol-2(3H)-ylidene)-3-(trifluoromethyl)benzamide] | ≥ 7.00 | ≥ 7.00
